Data on one compound can be found in patent US12070444B2, “Modulation of molecular markers using S-equol” (Board of Regents, The University of Texas System, priority 2020, dated 2024).

Test [1] concerns B16 melanoma tumor cell line. Put plainly: B16 melanoma tumor challenge in mice treated with S-equol and/or anti-PD-1 antibody. It is filed as in vivo, mouse. The protocol:
FIG. 4. A schema for combination therapy. Mice were administered one of: (1) vehicle+rat IgG2a; (2) S-equol+rat IgG2a; (3) vehicle+anti-PD-1 antibody; or (4) S-equol+anti-PD-1 antibody. Mice receiving anti-PD-1 antibody were given 250 μg every 3 days, intraperitoneally, and mice receiving S-equol were given 50 mg/kg per day by oral gavage. Treatment started 7 days after tumor challenge with B16 melanoma.
Melanoma cell line B16 was tested to determine the effects of a PD-1 inhibitor, S-equol and a combination of the two therapies on tumor growth. This experimental design includes four arms: (1) controls, (2) αPD-1, (3) S-equol, and (4) αPD-1+S-equol (FIG. 4) by injecting into mice 5×10^5 cells subcutaneously. Antibodies were administered α-PD-1: 250 μg/mice by i.p. injection every 3 days and S-equol was administered at 50 mg/kg/day by oral gavage. Treatment began 7 day after tumor challenge. Tumor growth trajectories were compared within treated mice using a repeated measures linear mixed model. The primary outcome was the logarithm of the tumor size, and the test statistic is the treatment×time interaction. Tumors were measured about 10 times. The number of recipient mice use used in the studies (n=6 per group) was based on the above study.
(§1) For tumor studies, 8 to 10-week-old mice were used. M-Wnt (5 Å˜10^5 cells), E0771 (5 Å˜10^5 cells), AT-3 (2 Å˜10^5 cells), and EMT-6 (5 Å˜10^5 cells) tumor cells were subcutaneously inoculated into the fourth mammary pad. B16F10 (0.5 Å˜10^6 cells) and MC38 (5 Å˜10^6 cells) tumor cells were subcutaneously inoculated into the back flank. Tumor volume was measured with calipers (0.5 Å˜length Å˜width2) on the indicated days. Anti-IgG2a (BioXcell, Cat: #BE0146) and anti-PD-1 (BioXcell, Cat: #BE0089) antibodies were administered through intraperitoneal (i.p.) injection at a dose of […] every 3 days starting on day 7 after tumor challenge for the duration as indicated. S-equol (from Ausio Pharmaceuticals) was administered daily by oral gavage at 50 mg/kg beginning on the day of tumor challenge and continuing throughout the entire tumor growth experiments.

The subject of test [2] is E0771 mammary tumor cell line. Put plainly: E0771 mammary tumor challenge in mice treated with S-equol and/or anti-PD-1 antibody. It is filed as in vivo, mouse. Conditions: E0771 mammary tumor model, Example 14, four arms (FIG. 33A-B). How it is done: (§2) The following three murine mammary tumor lines were tested to determine the effects of a PD-1 inhibitor, S-equol and a combination of the two therapies on tumor growth: (1) E0771 (B6 background), (2) AT-3 (B6 background), and (3) 4T1 (BalbC background). This experimental design includes four arms (using AT-3 as an example): (1) controls, (2) αPD-1, (3) S-equol, and (4) αPD-1+S-equol (FIG. 3) by injecting into mice 2×10^5 cells subcutaneously into the 4th mammary gland fat pad. Antibodies were administered α-PD-1: 200 μg/mice by i.p. injection every 3 days and S-equol was administered at 50 mg/kg/day by oral gavage. Treatment began 7 day after tumor challenge. Tumor growth trajectories were compared within treated mice using a repeated measures linear mixed model. The primary outcome was the logarithm of the tumor size, and the test statistic is the treatment×time interaction. Tumors were measured about 10 times. The number of recipient mice use used in the studies (n=8 per group) was based on the above study.
For tumor studies, 8 to 10-week-old mice were used. M-Wnt (5 Å˜10^5 cells), E0771 (5 Å˜10^5 cells), AT-3 (2 Å˜10^5 cells), and EMT-6 (5 Å˜10^5 cells) tumor cells were subcutaneously inoculated into the fourth mammary pad. […] Tumor volume was measured with calipers (0.5 Å˜length Å˜width2) on the indicated days. […]

Test [3] has as its system AT3 mammary tumor cell line. Put plainly: AT3 mammary tumor challenge in mice treated with S-equol and/or anti-PD-1 antibody. It is filed as in vivo, mouse. The protocol:
as §2, §1

In a further test the target is T1, ERβ pY36 (Homo sapiens, UniProt Q92731).
T1 construct: host or cells: MDA-MB-231 (human TNBC cell line)
T1 sequence (Q92731 whole entry): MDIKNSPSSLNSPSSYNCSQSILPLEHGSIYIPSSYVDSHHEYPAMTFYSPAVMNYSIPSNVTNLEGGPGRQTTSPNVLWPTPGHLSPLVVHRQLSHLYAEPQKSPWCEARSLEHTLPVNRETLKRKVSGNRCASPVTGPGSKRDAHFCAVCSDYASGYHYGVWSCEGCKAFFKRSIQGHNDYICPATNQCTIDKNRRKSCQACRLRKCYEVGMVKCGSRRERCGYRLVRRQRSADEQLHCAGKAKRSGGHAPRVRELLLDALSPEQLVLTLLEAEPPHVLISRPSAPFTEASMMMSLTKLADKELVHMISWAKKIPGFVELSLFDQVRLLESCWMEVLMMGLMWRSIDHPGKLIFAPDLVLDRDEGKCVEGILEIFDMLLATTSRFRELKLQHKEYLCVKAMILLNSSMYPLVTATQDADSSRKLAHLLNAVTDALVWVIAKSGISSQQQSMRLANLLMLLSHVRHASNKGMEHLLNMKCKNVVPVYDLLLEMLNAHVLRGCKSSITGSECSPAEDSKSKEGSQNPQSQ
Put plainly: pY36-specific phosphorylation signal of ERβ in MDA-MB-231 cells. Conditions: MDA-MB-231 cells (FIG. 16A). It counts as cell-based. From the text: FIG. 16. […] See, Yuan et al. (2016) listed below, which is incorporated by reference herein for all purposes.

The target of the next test is T2, ERβ (Mus musculus, UniProt O08537).
T2 construct: endogenous in cells; b180 instead says mouse 'EF4' (probably EL4) lymphoma cells
T2 sequence (O08537 whole entry): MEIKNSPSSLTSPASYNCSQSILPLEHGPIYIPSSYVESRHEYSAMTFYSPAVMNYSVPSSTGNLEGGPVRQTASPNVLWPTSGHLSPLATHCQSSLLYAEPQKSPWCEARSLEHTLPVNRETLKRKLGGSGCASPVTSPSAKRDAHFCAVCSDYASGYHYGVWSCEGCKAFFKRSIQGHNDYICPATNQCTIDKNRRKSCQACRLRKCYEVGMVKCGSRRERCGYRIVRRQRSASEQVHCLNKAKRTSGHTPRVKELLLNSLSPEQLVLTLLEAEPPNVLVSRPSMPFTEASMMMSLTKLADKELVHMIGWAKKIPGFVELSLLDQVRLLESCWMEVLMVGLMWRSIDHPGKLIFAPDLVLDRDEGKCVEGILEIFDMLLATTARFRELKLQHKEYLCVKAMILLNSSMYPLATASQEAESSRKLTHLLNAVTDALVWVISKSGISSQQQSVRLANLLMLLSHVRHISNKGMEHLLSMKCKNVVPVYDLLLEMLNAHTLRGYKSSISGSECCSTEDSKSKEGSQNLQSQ
The test is described as follows: TCR activated ERβ tyrosine phosphorylation after anti-CD3/CD28 stimulation (IP-Western blot). It is filed as cell-based. Conditions: anti-CD3/CD28-stimulated cells, pretreated with S-equol for 4 hrs (FIG. 26A). The source says:
FIG. 26. ERβ agonist S-equol promotes CD8+ T cell activation and antitumor immunotherapy. […] FIGS. 26B and 26C show B16 melanoma growth and tumor weight from wild type C57BL/6J male mice with four arm treatments. Vehicle+α-IgG, 5-equol+α-IgG, Vehicle+α-PD-1, S-equol+α-PD-1. […] Vehicle+α-IgG, S-equol+α-IgG, Vehicle+α-PD-1, S-equol+α-PD-1. GSEA analysis in ERβ-high versus ERβ-low human melanoma TILs (tumor infiltrating lymphocytes). The enrichment of (FIG. 26F) NFAT pathway and (FIG. 26G) TNFα signaling were evaluated.
Cells were stained and sorted as previously described (Clark, 2016), using LSR II and FACSAria hardware and analyzed by FACSDiva (BD Bioscience) and FlowJo software (FlowJo, LLC). CD8+ T cell isolation and in vitro activationCD8+ T cells were isolated from the spleens under aseptic conditions. Individual spleens were homogenized to release splenocytes. […] Single-cell suspensions from individual spleens were pooled, filtered through 70 μm and 40 μm cell strainer (Fisher) and counted. […]
Isolated mouse spleen and bone marrow were lysed in RIPA Lysis and 218 Extraction Buffer. Protein amounts were determined by using Pierce BCA Protein Assay Kits (Pierce, Cat: #23225). […] Proteins were detected with ECL SuperSignal™ West Pico PLUS Chemiluminescent Substrate (Thermo Fisher, Cat. #34580).
For orientation: Immunoblotting shows a protein as a band on a membrane.

As for `Oc1ccc([C@H]2COc3cc(O)ccc3C2)cc1` [S-equol], the tumor weight result in test [1] (B16 melanoma (FIG. 8A)) and in test [3] (AT3 (FIG. 12B)) was “reduce tumor weight compared to control” in each case. The “tumor response (growth and tumor weight)” value in test [1] (B16 melanoma, Example 14, four arms (FIG. 26B-C)) was “responded”. For the same compound, the tumor volume result was “reduce tumor volume compared to control” in test [1] (B16 melanoma, anti-PD-1 250 μg every 3 days i.p., S-equol 50 mg/kg per day oral gavage, over 12 days post-challenge (FIG. 6)); “reduce tumor volume compared to control” in test [1] (B16 melanoma, anti-PD-1 250 μg every 3 days i.p., S-equol 50 mg/kg per day oral gavage, over 19 days post-challenge (FIG. 7)); “reduce tumor volume compared to control” in test [1] (B16 melanoma, legend headed over 16 days, text says over 12 days post-challenge (FIG. 9A)); “reduce tumor volume compared to control” in test [3] (AT3, anti-PD-1 200 μg every 3 days, S-equol 50 mg/kg per day, over 35 days post-challenge (FIG. 12A)). Moreover, the “tumor response (volume and weight)” value in test [2] is recorded as “responded”. Moreover, in test [3] (AT3, excised tumors (FIG. 12C)), the tumor size entry was “reduce tumor size compared to control”. Further, the pY36-specific phosphorylation signal entry on ERβ pY36 was “enhanced”. The “TCR activated ERβ tyrosine phosphorylation” value at ERβ was “further enhanced”.
